Reference: US12152035B2, “Androgen receptor binding molecule and use thereof” (Industrial Technology Research Institute, priority 2020, dated 2024)

Key:
Format in all cases: cell-based
[1] = system: CWR22RV1 cells; assay: Cytotoxicity assay (AlamarBlue, 72 hours); settings: 72 hours treatment, concentration not given
Protocol: (§1) Compound stock solutions of 10 mM were prepared with 100% DMSO and shaken for 10-15 seconds. The compound stock solutions were centrifuged at 12000 rpm (13523 rcf.) for 5 minutes and record the turbidity or precipitation state with a photo snapshot. The compound stock solutions were resuspended by shaking for 10-15 seconds, and serially diluted with 100% DMSO solution to make the compound concentration to 1000 μM, then to 100, 10, and 1 μM, and then 10-fold diluted with medium to 100, 10, 1, 0.1 μM (final 10% DMSO/medium) to complete compound test sample preparation. Compound treatment was performed by adding 10 μL of compound test sample to cells in each well of a 96-well plate (final 1% DMSO/medium).
(§2) Cells (CWR22Rv1 cells or VCaP cells) were cultured in RPMI-1640 medium supplemented with 10% fetal bovine serum, 10,000 U/mL penicillin and 10,000 μg/mL streptomycin. Cells were cultured at 37° C. in a humidified 5% CO2 incubator.
(§3) Cells were seeded in a 96-well plate (1×10^4 cells/well). 10 μL of the above compound test sample was added to each well of the 96-well plate on next day. After 72 hours of compound treatment, 10 μL of AlamaBlue reagent was added to each of 96 wells and incubated for 4 hours. The fluorescence value at Ex/Em=560/590 nm was read with a microplate reader, and the cytotoxicity (%) was calculated.
(§4) According to the above method, the compounds prepared above were subjected to cytotoxicity test with CWR22RV1 cells and VCaP cells.

[2] = system: VCaP cells; assay: Cytotoxicity assay (AlamarBlue, 72 hours); settings: 72 hours treatment, concentration not given
Protocol: as §1, §2, §3, §4

[3] = system: full-length androgen receptor; assay: Western blot: degradation of full-length androgen receptor in CWR22RV1 cells; settings: overnight
Protocol: CWR22Rv1 cells were maintained in RPMI medium supplemented with 10% fetal bovine serum and 1% penicillin-streptomycin at 37° C. in a humidified environment with 5% CO2.
CWR22Rv1 (5×10^5 cells) were seeded in each well of a 6-well plate and incubated overnight. Before compound treatment, the medium in the wells was replaced with a new medium. Cells were treated with different concentrations of compound overnight. Subsequently, cells were harvested by adding cold PBS and scraping cells. Cells were lysed according to general procedures and Western blot assays were performed to assess the ability of compounds to degrade full-length androgen receptor or androgen receptor splice variant 7. The cells or cell lysates were kept on ice at all times.
The following reagents were used in this experiment. Phosphate buffered saline (PBS) (Hyclone, SH30028.02), fetal bovine serum (Hyclone, SH30084.23, Lot AC14563276), penicillin-streptomycin solution (Hyclone, SV30010), 0.5% Trypsin-EDTA (Gibco, 15400-054), CST Lysis Buffer (CST-9803), Halt™ Protease and Phosphatase Inhibitor (ThermoFisher, 78442), Coomassie (Bradford) Protein Assay (Coomassie (Bradford) protein assay) (ThermoFisher, 23200), androgen receptor antibody (Cell Siginaling, CST-5153S), GAPDH antibody (Cell Siginaling, CST-5174S), HRP-goat-anti-rabbit (Jackson Immuno Research, 111-035-003), skim milk, SuperSignal West Pico Maximum Sensitivity substrate (ThermoFisher, 34080).
The compound prepared above was analyzed for its ability to degrade full-length androgen receptor and androgen receptor splice variant 7 in CWR22RV1 cells by Western blotting according to the method shown in item B.3-2 above.

[4] = compound concentration 0.1 (unit not given)
[5] = compound concentration 1 (unit not given)
[6] = compound concentration 10 (unit not given)

SMILES: Cc1cc([C@H](C(=O)N2C[C@H](O)C[C@H]2C(=O)N[C@@H](CC(=O)N2CCC(N3CCC(C#Cc4ccc(C5CCN(C6=Nn7c(nnc7C(F)(F)F)CC6)CC5)cc4)CC3)CC2)c2ccc(-c3scnc3C)cc2)C(C)C)on1 [Compound 9, (2S,4R)-4-hydroxy-1-((R)-3-methyl-2-(3-methylisoxazol-5-yl)butanoyl)-N—((S)-1-(4-(4-methylthiazol-5-yl)phenyl)-3-oxo-3-(4-((4-(1-(3-(trifluoromethyl)-7,8-dihydro-[1,2,4]triazolo[4,3-b]pyridazin-6-yl)piperidin-4-yl)phenyl)ethynyl)-[1,4′-bipiperidin]-1′-yl)propyl)pyrrolidine-2-carboxamide]
- Cytotoxicity, CWR22RV1 cells (cell viability %) [1]: ++ (40-60% : ++)
- Cytotoxicity, VCaP cells (cell viability %) [2]: +++ (<40% : +++)
- Degradation ability for full-length androgen receptor (residual rate %) [3, 4]: + (60-80%: +)
- Degradation ability for full-length androgen receptor (residual rate %) [3, 5]: +++ (<40%: +++)
- Degradation ability for full-length androgen receptor (residual rate %) [3, 6]: + (60-80%: +)

SMILES: Cc1cc([C@H](C(=O)N2C[C@H](O)C[C@H]2C(=O)N[C@@H](CC(=O)N2CCC(C#Cc3ccc(C4CCN(C5=Nn6c(nnc6C(F)(F)F)CC5)CC4)cc3)CC2)c2ccc(-c3scnc3C)cc2)C(C)C)on1 [Compound 14, (2S,4R)-4-hydroxy-1-((R)-3-methyl-2-(3-methylisoxazol-5-yl)butanoyl)-N—((S)-1-(4-(4-methylthiazol-5-yl)phenyl)-3-oxo-3-(4-((4-(1-(3-(trifluoromethyl)-7,8-dihydro-[1,2,4]triazolo[4,3-b]pyridazin-6-yl)piperidin-4-yl)phenyl)ethynyl)piperidin-1-yl)propyl)pyrrolidine-2-carboxamide]
- Cytotoxicity, CWR22RV1 cells (cell viability %) [1]: +++ (<40% : +++)
- Cytotoxicity, VCaP cells (cell viability %) [2]: +++ (<40% : +++)
- Degradation ability for full-length androgen receptor (residual rate %) [3, 4]: − (>80%; −)
- Degradation ability for full-length androgen receptor (residual rate %) [3, 5]: − (>80%; −)
- Degradation ability for full-length androgen receptor (residual rate %) [3, 6]: +++ (<40%: +++)

SMILES: Cc1ncsc1-c1ccc(CNC(=O)[C@@H]2C[C@H](O)CN2C(=O)[C@@H](NC(=O)COCCOc2ccc(C3CCN(C4=Nn5c(nnc5C(F)(F)F)CC4)CC3)cc2)C(C)(C)C)cc1 [Compound 19, (2S,4S)-1-((S)-3,3-dimethyl-2-(2-(2-(4-(1-(3-(trifluoromethyl)-7,8-dihydro-[1,2,4]triazolo[4,3-b]pyridazin-6-yl)piperidin-4-yl)phenoxy)ethoxy)acetamido)butanoyl)-4-hydroxy-N-(4-(4-methylthiazol-5-yl)benzyl)pyrrolidine-2-carboxamide]
- Cytotoxicity, CWR22RV1 cells (cell viability %) [1]: − (<80% : −)
- Cytotoxicity, VCaP cells (cell viability %) [2]: − (<80% : −)
- Degradation ability for full-length androgen receptor (residual rate %) [3, 4]: − (>80%; −)
- Degradation ability for full-length androgen receptor (residual rate %) [3, 5]: − (>80%; −)
- Degradation ability for full-length androgen receptor (residual rate %) [3, 6]: − (>80%; −)

SMILES: Cc1ncsc1-c1ccc(CNC(=O)[C@@H]2C[C@H](O)CN2C(=O)[C@@H](NC(=O)COCCCCCOc2ccc(C3CCN(C4=Nn5c(nnc5C(F)(F)F)CC4)CC3)cc2)C(C)(C)C)cc1 [Compound 21]
- Cytotoxicity, CWR22RV1 cells (cell viability %) [1]: +++ (<40% : +++)
- Cytotoxicity, VCaP cells (cell viability %) [2]: + (60-80% : +)
- Degradation ability for full-length androgen receptor (residual rate %) [3, 4]: − (>80%; −)
- Degradation ability for full-length androgen receptor (residual rate %) [3, 5]: − (>80%; −)
- Degradation ability for full-length androgen receptor (residual rate %) [3, 6]: +++ (<40%: +++)

SMILES: Cc1ncsc1-c1ccc(CNC(=O)[C@@H]2C[C@H](O)CN2C(=O)[C@@H](NC(=O)COCCCCCCOc2ccc(C3CCN(C4=Nn5c(nnc5C(F)(F)F)CC4)CC3)cc2)C(C)(C)C)cc1 [Compound 22]
- Cytotoxicity, CWR22RV1 cells (cell viability %) [1]: +++ (<40% : +++)
- Cytotoxicity, VCaP cells (cell viability %) [2]: +++ (<40% : +++)
- Degradation ability for full-length androgen receptor (residual rate %) [3, 4]: ++ (40-60%: ++)
- Degradation ability for full-length androgen receptor (residual rate %) [3, 5]: +++ (<40%: +++)
- Degradation ability for full-length androgen receptor (residual rate %) [3, 6]: +++ (<40%: +++)

SMILES: O=C1CCC(N2Cc3c(NC(=O)COCCCCOc4ccc(C5CCN(C6=Nn7c(nnc7C(F)(F)F)CC6)CC5)cc4)cccc3C2=O)C(=O)N1 (centres unmarked) [Compound 30, N-(2-(2,6-dioxopiperidin-3-yl)-1-oxoisoindolin-4-yl)-2-(4-(4-(1-(3-(trifluoromethyl)-7,8-dihydro-[1,2,4]triazolo[4,3-b]pyridazin-6-yl)piperidin-4-yl)phenoxy)butoxy)acetamide]
- Cytotoxicity, CWR22RV1 cells (cell viability %) [1]: +++ (<40% : +++)
- Cytotoxicity, VCaP cells (cell viability %) [2]: +++ (<40% : +++)
- Degradation ability for full-length androgen receptor (residual rate %) [3, 4]: ++ (40-60%: ++)
- Degradation ability for full-length androgen receptor (residual rate %) [3, 5]: +++ (<40%: +++)
- Degradation ability for full-length androgen receptor (residual rate %) [3, 6]: +++ (<40%: +++)

SMILES: Cc1ncsc1-c1ccc(CNC(=O)[C@H]2C[C@@H](O)CN2C(=O)[C@@H](NC(=O)C2(F)CC2)C(C)(C)C)c(OCCCCCCCOc2ccc(C3CCN(C4=Nn5c(nnc5C(F)(F)F)CC4)CC3)cc2)c1 [Compound 36, (2R,4R)-1-((S)-2-(1-fluorocyclopropane-1-carboxamido)-3,3-dimethylbutanoyl)-4-hydroxy-N-(4-(4-methylthiazol-5-yl)-2-((7-(4-(1-(3-(trifluoromethyl)-7,8-dihydro-[1,2,4]triazolo[4,3-b]pyridazin-6-yl)piperidin-4-yl)phenoxy)heptyl)oxy)benzyl)pyrrolidine-2-carboxamide]
- Cytotoxicity, CWR22RV1 cells (cell viability %) [1]: +++ (<40% : +++)
- Cytotoxicity, VCaP cells (cell viability %) [2]: +++ (<40% : +++)
- Degradation ability for full-length androgen receptor (residual rate %) [3, 4]: − (>80%; −)
- Degradation ability for full-length androgen receptor (residual rate %) [3, 5]: + (60-80%: +)
- Degradation ability for full-length androgen receptor (residual rate %) [3, 6]: + (60-80%: +)

SMILES: Cc1ncsc1-c1ccc(CNC(=O)[C@@H]2C[C@H](O)CN2C(=O)[C@@H](NC(=O)COCCCCOc2ccc(C3CCN(c4ccc5nnc(C(F)(F)F)n5n4)CC3)cc2)C(C)(C)C)cc1 [Compound 37, (2S,4S)-1-((S)-3,3-dimethyl-2-(2-(4-(4-(1-(3-(trifluoromethyl)-[1,2,4]triazolo[4,3-b]pyridazin-6-yl)piperidin-4-yl)phenoxy)butoxy)acetamido)butanoyl)-4-hydroxy-N-(4-(4-methylthiazol-5-yl)benzyl)pyrrolidine-2-carboxamide]
- Cytotoxicity, CWR22RV1 cells (cell viability %) [1]: +++ (<40% : +++)
- Cytotoxicity, VCaP cells (cell viability %) [2]: +++ (<40% : +++)
- Degradation ability for full-length androgen receptor (residual rate %) [3, 4]: − (>80%; −)
- Degradation ability for full-length androgen receptor (residual rate %) [3, 5]: + (60-80%: +)
- Degradation ability for full-length androgen receptor (residual rate %) [3, 6]: +++ (<40%: +++)

SMILES: O=C1CCC(N2Cc3c(NC(=O)COCCCCOc4ccc(C5CCN(c6ccc7nnc(C(F)(F)F)n7n6)CC5)cc4)cccc3C2=O)C(=O)N1 (centres unmarked) [Compound 38, N-(2-(2,6-dioxopiperidin-3-yl)-1-oxoisoindolin-4-yl)-2-(4-(4-(1-(3-(trifluoromethyl)-[1,2,4]triazolo[4,3-b]pyridazin-6-yl)piperidin-4-yl)phenoxy)butoxy)acetamide]
- Cytotoxicity, CWR22RV1 cells (cell viability %) [1]: +++ (<40% : +++)
- Cytotoxicity, VCaP cells (cell viability %) [2]: +++ (<40% : +++)
- Degradation ability for full-length androgen receptor (residual rate %) [3, 4]: ++ (40-60%: ++)
- Degradation ability for full-length androgen receptor (residual rate %) [3, 5]: +++ (<40%: +++)
- Degradation ability for full-length androgen receptor (residual rate %) [3, 6]: +++ (<40%: +++)

SMILES: O=C1CCC(N2Cc3c(NC(=O)CCCCCCOc4ccc(C5CCN(C6=Nn7c(nnc7C(F)(F)F)CC6)CC5)cc4)cccc3C2=O)C(=O)N1 (centres unmarked) [Compound 39, N-(2-(2,6-dioxopiperidin-3-yl)-1-oxoisoindolin-4-yl)-7-(4-(1-(3-(trifluoromethyl)-7,8-dihydro-[1,2,4]triazolo[4,3-b]pyridazin-6-yl)piperidin-4-yl)phenoxy)heptanamide]
- Cytotoxicity, CWR22RV1 cells (cell viability %) [1]: +++ (<40% : +++)
- Cytotoxicity, VCaP cells (cell viability %) [2]: +++ (<40% : +++)
- Degradation ability for full-length androgen receptor (residual rate %) [3, 4]: − (>80%; −)
- Degradation ability for full-length androgen receptor (residual rate %) [3, 5]: + (60-80%: +)
- Degradation ability for full-length androgen receptor (residual rate %) [3, 6]: ++ (40-60%: ++)
